The values below come from BindingDB's records for doi:10.1021/jm0204587 (University of Pennsylvania, 2003).

The test deals with T1, Dimer of Gag-Pol polyprotein [501-599] (Human immunodeficiency virus 1, UniProt P03367).
T1 construct: 501-599
Kind of test: Protease Inhibition Assay. The settings on record: pH 5.5; 30 °C. As to the method:
All enzyme assays were performed under initial velocity and steady-state conditions. The conditions for the enzyme catalyzed hydrolysis of the cleavage site peptide VSQN-(beta-naphthylalanine)-PIV were established with respect to time and enzyme concentration to yield linear initial velocity data. […] The detection of product was monitored with fluorescence (excitation 270 nm, emission 330 nm).
For `CC(C)C[C@@]1(C2C=N[C@@](Cc3ccccc3)(C[C@H](O)[C@H](Cc3ccccc3)NC(=O)OC(C)(C)C)C2=O)N=CC([C@@H](Cc2ccccc2)C(N)=O)C1=O` (some centres not stated) [Pyrrolinone deriv. 1], inhibition was half-maximal at 10 nM (IC50).

For `O=C(N[C@@H](Cc1ccccc1)[C@@H](O)C[C@@H](Cc1ccccc1)C(=O)NC1c2ccccc2C[C@H]1O)O[C@H]1CCOC1` (stereo partly drawn) [(3S)-oxolan-3-yl N-[(2S,3S,5R)-5-benzyl-3-hydroxy-5-{[(2R)-2-hydroxy-2,3-dihydro-1H-inden-1-yl]carbamoyl}-1-phenylpentan-2-yl]carbamate], the IC50 (in general, the concentration needed to halve the response being measured) came out at 0.03 nM.

`CC(C)C[C@H](NC(=O)[C@H](Cc1ccccc1)C[C@H](O)[C@H](Cc1ccccc1)NC(=O)OC(C)(C)C)C(=O)N[C@@H](Cc1ccccc1)C(N)=O` [Hydroxyethylene dipeptide isostere]: the IC50 amounted to 0.6 nM.

Molecule `CC(C)C[C@@]1(C2C=N[C@@](Cc3ccccc3)(C[C@H](O)[C@H](Cc3ccccc3)NC(=O)O[C@H]3CCOC3)C2=O)N=CC([C@@H](Cc2ccccc2)C(N)=O)C1=O` (some centres not stated) [Pyrrolinone deriv. 2] had an IC50 of 1.3 nM.

`CC(C)(C)OC(=O)N[C@@H](Cc1ccccc1)[C@@H](O)C[C@]1(Cc2ccccc2)N=CC(C2c3ccccc3C[C@H]2O)C1=O` (some centres not stated) [Pyrrolinone deriv. 6] yielded an IC50 of 11.9 nM.

Consider `CC(C)(C)OC(=O)N[C@@H](Cc1ccccc1)[C@@H](O)C[C@@H](Cc1ccccc1)C(=O)NC1c2ccccc2C[C@H]1O` (stereo partly drawn) [tert-butyl N-[(2S,3S,5R)-5-benzyl-3-hydroxy-5-{[(2R)-2-hydroxy-2,3-dihydro-1H-inden-1-yl]carbamoyl}-1-phenylpentan-2-yl]carbamate], for which the concentration for half-maximal inhibition (IC50) was found to be 0.3 nM.

Regarding `O=C(N[C@@H](Cc1ccccc1)[C@@H](O)C[C@]1(Cc2ccccc2)N=CC(C2c3ccccc3C[C@H]2O)C1=O)O[C@H]1CCOC1` (stereo partly drawn) [(3S)-oxolan-3-yl N-[(2S,3S)-4-[(2S)-2-benzyl-4-[(2R)-2-hydroxy-2,3-dihydro-1H-inden-1-yl]-3-oxo-2,3-dihydro-1H-pyrrol-2-yl]-3-hydroxy-1-phenylbutan-2-yl]carbamate], the IC50 was determined as 2 nM.
